According to PubChem BioAssay AID248 (DTP/NCI, 2004):
“And” between values parts separate entries of the source, which are not always exact repeats. Identical values can stand only once. Inconclusive results and toxic doses are left out. Cut-off read from the data, not from the text of the source: active = T/C of 150% or more; inactive = T/C below 125%.

Test system: L1210 leukemia ip in BDF1 mice, survival T/C
Experiment: NCI In Vivo Anticancer Drug Screen. Data for tumor model L1210 Leukemia (intraperitoneal) in B6D2F1 (BDF1) mice
Conditions: endpoint: mean survival time, higher = longer survival
Summary of the method: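 Transplantable tumor model; survival measured in treated vs vehicle control mice. Value = treated/control.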

[1] = dose: 100.0 mg/kg/injection, schedule: Q04DX003 (ip), vehicle: saline
[2] = dose: 200.0 mg/kg/injection, schedule: Q04DX003 (ip), vehicle: saline
[3] = dose: 400.0 mg/kg/injection, schedule: Q04DX003 (ip), vehicle: saline
[4] = dose: 100.0 mg/kg/injection, schedule: Q01DX001 (ip), vehicle: saline
[5] = dose: 200.0 mg/kg/injection, schedule: Q01DX001 (ip), vehicle: saline
[6] = dose: 400.0 mg/kg/injection, schedule: Q01DX001 (ip), vehicle: saline
[7] = dose: 100.0 mg/kg/injection, schedule: Q04DX003 (ip), vehicle: Klucel (hydroxypropylcellulose) (HPC)
[8] = dose: 200.0 mg/kg/injection, schedule: Q04DX003 (ip), vehicle: Klucel (hydroxypropylcellulose) (HPC)

Measured: T/C

Cc1cc(C(C)(CC(C)C)c2ccc(O)c(C)c2)ccc1O
inactive: dose: 25.0 mg/kg/injection, schedule: Q01DX009 (ip), vehicle: gum acacia 96 % of control | dose: 50.0 mg/kg/injection, schedule: Q01DX009 (ip), vehicle: gum acacia 98 % of control | dose: 100.0 mg/kg/injection, schedule: Q01DX009 (ip), vehicle: gum acacia 93 % of control and 89 % of control | dose: 100.0 mg/kg/injection, schedule: Q04DX003 (ip), vehicle: gum acacia 97 % of control | dose: 200.0 mg/kg/injection, schedule: Q04DX003 (ip), vehicle: gum acacia 93 % of control | dose: 400.0 mg/kg/injection, schedule: Q04DX003 (ip), vehicle: gum acacia 90 % of control

CC(C)C(C(=O)O)(c1ccccc1)c1ccccc1
inactive: [1] 101 % of control | [2] 103 % of control | [3] 97 % of control

O=C(NNc1nc(-c2ccccc2)nc(-c2ccccc2)n1)c1ccccc1
inactive: [4] 95 % of control | [5] 96 % of control | [6] 89 % of control

Cc1ccc(C(=O)CCCCl)cc1C
inactive: dose: 100.0 mg/kg/injection, schedule: Q04DX003 (ip), vehicle: saline with Tween-80 95 % of control | dose: 200.0 mg/kg/injection, schedule: Q04DX003 (ip), vehicle: saline with Tween-80 89 % of control | dose: 400.0 mg/kg/injection, schedule: Q04DX003 (ip), vehicle: saline with Tween-80 88 % of control

Cc1c(N=NN(C)C)c(=O)n(-c2ccccc2)n1C
inactive: dose: 18.0 mg/kg/injection, schedule: Q01DX001 (ip), vehicle: saline with Tween-80 100 % of control | dose: 18.0 mg/kg/injection, schedule: Q04DX003 (ip), vehicle: saline with Tween-80 107 % of control | dose: 25.0 mg/kg/injection, schedule: Q01DX009 (ip), vehicle: saline with Tween-80 105 % of control | dose: 37.0 mg/kg/injection, schedule: Q01DX001 (ip), vehicle: saline with Tween-80 116 % of control | dose: 37.0 mg/kg/injection, schedule: Q04DX003 (ip), vehicle: saline with Tween-80 108 % of control | dose: 50.0 mg/kg/injection, schedule: Q01DX009 (ip), vehicle: saline with Tween-80 114 % of control | dose: 75.0 mg/kg/injection, schedule: Q01DX001 (ip), vehicle: saline with Tween-80 119 % of control | dose: 75.0 mg/kg/injection, schedule: Q04DX003 (ip), vehicle: saline with Tween-80 112 % of control | dose: 100.0 mg/kg/injection, schedule: Q01DX001 (ip), vehicle: saline with Tween-80 97 % of control

C=C(C)C1(Cc2ccccc2)C(=O)NC(=S)NC1=O
inactive: dose: 9.38 mg/kg/injection, schedule: Q01DX001 (ip), vehicle: saline 91 % of control | dose: 10.0 mg/kg/injection, schedule: Q01DX001 (ip), vehicle: saline 102 % of control

CC(C(=O)c1ccc(Br)cc1)C(O)(C(F)(F)F)C(F)(F)F (stereo not given)
inactive: dose: 100.0 mg/kg/injection, schedule: Q01DX007 (ip), vehicle: saline with Tween-80 102 % of control | dose: 200.0 mg/kg/injection, schedule: Q01DX007 (ip), vehicle: saline with Tween-80 109 % of control | dose: 400.0 mg/kg/injection, schedule: Q01DX007 (ip), vehicle: saline with Tween-80 101 % of control

COc1ccc(C(O)c2c(CN(C)C)c3ccccc3n2C)cc1 (stereo not given)
inactive: dose: 100.0 mg/kg/injection, schedule: Q04DX002 (ip), vehicle: other 106 % of control

Oc1ccc2ccccc2c1C=Nc1cccc(Cl)c1
inactive: dose: 50.0 mg/kg/injection, schedule: Q04DX003 (ip), vehicle: Klucel (hydroxypropylcellulose) (HPC) 103 % of control | dose: 100.0 mg/kg/injection, schedule: Q01DX001 (ip), vehicle: Klucel (hydroxypropylcellulose) (HPC) 113 % of control | [7] 101 % of control | dose: 200.0 mg/kg/injection, schedule: Q01DX001 (ip), vehicle: Klucel (hydroxypropylcellulose) (HPC) 107 % of control | [8] 98 % of control | dose: 400.0 mg/kg/injection, schedule: Q01DX001 (ip), vehicle: Klucel (hydroxypropylcellulose) (HPC) 101 % of control

N#CC1CNCCC1=N (stereo not given)
inactive: [1] 96 % of control | [2] 96 % of control | [3] 100 % of control

O=C(Cl)C(=O)c1c[nH]c2ccccc12
inactive: dose: 100.0 mg/kg/injection, schedule: Q04DX002 (ip), vehicle: Klucel (hydroxypropylcellulose) (HPC) 101 % of control | dose: 200.0 mg/kg/injection, schedule: Q04DX002 (ip), vehicle: Klucel (hydroxypropylcellulose) (HPC) 101 % of control | dose: 400.0 mg/kg/injection, schedule: Q04DX002 (ip), vehicle: Klucel (hydroxypropylcellulose) (HPC) 95 % of control

O=C(Nc1ccc(S(=O)(=O)Nc2ccc(N=Nc3ccc(N=Nc4ccccc4)cc3)cc2)cc1)C(N1CC1)(N1CC1)N1CC1
inactive: dose: 15.0 mg/kg/injection, schedule: Q01DX001 (ip), vehicle: saline 104 % of control | dose: 30.0 mg/kg/injection, schedule: Q01DX001 (ip), vehicle: saline 117 % of control | dose: 60.0 mg/kg/injection, schedule: Q01DX001 (ip), vehicle: saline 102 % of control

Cc1cccc(N)n1
inactive: dose: 25.0 mg/kg/injection, schedule: Q04DX002 (ip), vehicle: saline 89 % of control | dose: 50.0 mg/kg/injection, schedule: Q04DX002 (ip), vehicle: saline 92 % of control

CC(=O)C(CCC#N)(CCC#N)CCC#N
inactive: dose: 75.0 mg/kg/injection, schedule: Q01DX009 (ip), vehicle: saline 93 % of control | dose: 150.0 mg/kg/injection, schedule: Q01DX009 (ip), vehicle: saline 95 % of control | [2] 102 % of control | dose: 300.0 mg/kg/injection, schedule: Q01DX009 (ip), vehicle: saline 93 % of control | [3] 87 % of control

COP(=O)(OC)OCc1cnc(SC)nc1N
inactive: dose: 25.0 mg/kg/injection, schedule: Q01DX009 (ip), vehicle: saline 100 % of control | dose: 25.0 mg/kg/injection, schedule: Q04DX003 (ip), vehicle: saline 100 % of control | dose: 50.0 mg/kg/injection, schedule: Q01DX009 (ip), vehicle: saline 102 % of control | dose: 50.0 mg/kg/injection, schedule: Q04DX003 (ip), vehicle: saline 105 % of control | dose: 100.0 mg/kg/injection, schedule: Q01DX009 (ip), vehicle: saline 98 % of control | [1] 101 % of control and 102 % of control

CCN(CC)c1ccc(C(=O)c2ccc(N(CC)CC)cc2)cc1
inactive: dose: 15.0 mg/kg/injection, schedule: Q01DX Z (ip), vehicle: carboxymethylcellulose (CMC) 88 % of control | dose: 30.0 mg/kg/injection, schedule: Q01DX Z (ip), vehicle: carboxymethylcellulose (CMC) 92 % of control | dose: 60.0 mg/kg/injection, schedule: Q01DX Z (ip), vehicle: carboxymethylcellulose (CMC) 92 % of control and 95 % of control | dose: 120.0 mg/kg/injection, schedule: Q01DX Z (ip), vehicle: carboxymethylcellulose (CMC) 94 % of control and 100 % of control | dose: 240.0 mg/kg/injection, schedule: Q01DX Z (ip), vehicle: carboxymethylcellulose (CMC) 100 % of control | dose: 480.0 mg/kg/injection, schedule: Q01DX Z (ip), vehicle: carboxymethylcellulose (CMC) 118 % of control

c1ccc(C(CC(c2ccccc2)(c2ccccc2)c2ccccc2)(c2ccccc2)c2ccccc2)cc1
inactive: [4] 96 % of control | [5] 94 % of control | [6] 105 % of control

CCCCOC(=O)Oc1ccc(C(=O)Oc2ccc(OCC)cc2)cc1
inactive: dose: 100.0 mg/kg/injection, schedule: Q01DX009 (ip), vehicle: Klucel (hydroxypropylcellulose) (HPC) 111 % of control | [7] 104 % of control | dose: 200.0 mg/kg/injection, schedule: Q01DX009 (ip), vehicle: Klucel (hydroxypropylcellulose) (HPC) 106 % of control | [8] 109 % of control | dose: 400.0 mg/kg/injection, schedule: Q04DX003 (ip), vehicle: Klucel (hydroxypropylcellulose) (HPC) 98 % of control

O=C(c1ccccc1)C(C(=O)c1ccccc1)C(c1ccccc1)C(C(=O)c1ccccc1)C(c1ccccc1)c1ccccc1 (stereo not given)
inactive: [4] 87 % of control | [5] 89 % of control | [6] 92 % of control and 91 % of control
